Data taken from patent US20230322770A1, “SUBSTITUTED HETEROARYL COMPOUNDS USEFUL AS INHIBITORS OF TLR9” (BRISTOL-MYERS SQUIBB COMPANY, priority 2020, published 2023).
pIC50: −log10 of the molar value.

Key:
Type in all cases: cell-based
human TLR9 = molecular target: T1, human TLR9 (Homo sapiens, UniProt Q9NR96); experiment: TLR9 inhibition reporter assay (HEK-Blue cells, SEAP reporter); settings: HEK-Blue cells overexpressing human TLR9; stimulated with ODN2006 5 nM; SEAP after 22 hour incubation
T1 construct: host or cells: HEK-Blue cells (HEK293-derived reporter line)
T1 sequence (Q9NR96 26-1032): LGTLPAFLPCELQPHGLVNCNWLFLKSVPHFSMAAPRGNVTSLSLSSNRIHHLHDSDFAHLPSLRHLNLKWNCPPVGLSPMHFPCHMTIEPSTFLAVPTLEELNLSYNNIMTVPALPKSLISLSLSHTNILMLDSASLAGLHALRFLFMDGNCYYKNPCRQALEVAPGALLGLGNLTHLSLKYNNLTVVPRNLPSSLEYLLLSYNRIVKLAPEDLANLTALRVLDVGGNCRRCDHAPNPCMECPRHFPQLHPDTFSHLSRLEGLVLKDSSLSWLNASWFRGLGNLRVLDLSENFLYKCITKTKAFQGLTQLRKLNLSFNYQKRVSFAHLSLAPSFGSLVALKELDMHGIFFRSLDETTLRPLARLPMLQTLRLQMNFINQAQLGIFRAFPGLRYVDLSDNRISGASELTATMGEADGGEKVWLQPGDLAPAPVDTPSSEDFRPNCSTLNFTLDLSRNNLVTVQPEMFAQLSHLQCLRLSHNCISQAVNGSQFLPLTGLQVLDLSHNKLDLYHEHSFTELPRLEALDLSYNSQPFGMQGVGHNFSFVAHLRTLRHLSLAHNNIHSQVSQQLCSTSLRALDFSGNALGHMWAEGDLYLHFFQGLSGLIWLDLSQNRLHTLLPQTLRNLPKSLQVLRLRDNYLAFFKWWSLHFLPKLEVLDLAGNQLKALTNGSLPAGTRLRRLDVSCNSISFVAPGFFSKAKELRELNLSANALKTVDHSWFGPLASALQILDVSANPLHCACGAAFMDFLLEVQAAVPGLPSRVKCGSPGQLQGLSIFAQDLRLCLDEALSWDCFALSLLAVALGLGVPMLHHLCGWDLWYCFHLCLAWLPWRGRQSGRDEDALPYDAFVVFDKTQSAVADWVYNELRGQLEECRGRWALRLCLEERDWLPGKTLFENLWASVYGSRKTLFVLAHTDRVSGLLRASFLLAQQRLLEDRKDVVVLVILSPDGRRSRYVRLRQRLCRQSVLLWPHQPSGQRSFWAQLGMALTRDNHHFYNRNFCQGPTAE
Description: (§1) TLR7/8/9 Inhibition Reporter Assays
(§2) HEK-Blue™-cells (Invivogen) overexpressing human TLR7, TLR8 or TLR9 receptors were used for screening inhibitors of these receptors using an inducible SEAP (secreted embryonic alkaline phosphatase) reporter gene under the control of the IFN-β minimal promoter fused to five NF-κB and AP-1-binding sites. Briefly, cells are seeded into Greiner 384 well plates (15000 cells per well for TLR7, 20,000 for TLR8 and 25,000 for TLR9) and then treated with test compounds in DMSO to yield a final dose response concentration range of 0.05 nM-50 μM. After a 30 minute compound pre-treatment at room temperature, the cells are then stimulated with a TLR7 ligand (gardiquimod at a final concentration of 7.5 μM), TLR8 ligand (R848 at a final concentration of 15.9 μM) or TLR9 ligand (ODN2006 at a final concentration of 5 nM) to activate NF-κB and AP-1 which induce the production of SEAP. After a 22 hour incubation at 37° C., 5% CO2, SEAP levels are determined with the addition of HEK-Blue™ Detection reagent (Invivogen), a cell culture medium that allows for detection of SEAP, according to manufacturer's specifications. The percent inhibition is determined as the % reduction in the HEK-Blue signal present in wells treated with agonist plus DMSO alone compared to wells treated with a known inhibitor.

human TLR7 = molecular target: T2, human TLR7 (Homo sapiens, UniProt Q9NYK1); experiment: TLR7 inhibition reporter assay (HEK-Blue cells, SEAP reporter); settings: HEK-Blue cells overexpressing human TLR7; stimulated with gardiquimod 7.5 μM; SEAP after 22 hour incubation
T2 construct: host or cells: HEK-Blue cells (HEK293-derived reporter line)
T2 sequence (Q9NYK1 27-1049): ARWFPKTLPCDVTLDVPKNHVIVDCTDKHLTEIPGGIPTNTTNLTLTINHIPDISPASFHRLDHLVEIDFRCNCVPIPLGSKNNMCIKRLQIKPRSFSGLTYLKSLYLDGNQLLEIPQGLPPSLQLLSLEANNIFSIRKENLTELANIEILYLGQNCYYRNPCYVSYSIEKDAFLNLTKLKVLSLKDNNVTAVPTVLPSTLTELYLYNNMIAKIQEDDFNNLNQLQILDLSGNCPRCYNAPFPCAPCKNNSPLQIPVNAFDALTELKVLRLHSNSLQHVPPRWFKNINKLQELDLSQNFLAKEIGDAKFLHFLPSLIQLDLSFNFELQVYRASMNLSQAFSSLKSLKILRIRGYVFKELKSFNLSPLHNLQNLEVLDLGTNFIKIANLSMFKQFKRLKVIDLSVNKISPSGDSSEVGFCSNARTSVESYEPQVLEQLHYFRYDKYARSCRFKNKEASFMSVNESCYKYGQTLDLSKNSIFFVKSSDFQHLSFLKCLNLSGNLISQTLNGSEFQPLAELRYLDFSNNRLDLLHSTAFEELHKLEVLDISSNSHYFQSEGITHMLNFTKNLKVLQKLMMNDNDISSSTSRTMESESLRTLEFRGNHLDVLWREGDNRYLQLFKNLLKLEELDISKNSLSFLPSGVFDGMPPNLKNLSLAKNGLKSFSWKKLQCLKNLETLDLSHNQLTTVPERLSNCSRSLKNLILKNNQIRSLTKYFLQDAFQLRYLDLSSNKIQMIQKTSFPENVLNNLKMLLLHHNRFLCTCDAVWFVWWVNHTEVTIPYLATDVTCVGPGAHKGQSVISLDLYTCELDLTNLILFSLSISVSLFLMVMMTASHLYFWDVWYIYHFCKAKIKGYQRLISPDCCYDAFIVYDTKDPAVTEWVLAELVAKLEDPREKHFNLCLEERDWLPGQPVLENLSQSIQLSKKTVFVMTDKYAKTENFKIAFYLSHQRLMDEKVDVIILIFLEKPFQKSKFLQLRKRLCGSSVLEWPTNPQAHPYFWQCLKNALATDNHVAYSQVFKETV
Description: as §1, §2

human TLR8 = molecular target: T3, human TLR8 (Homo sapiens, UniProt Q9NR97); experiment: TLR8 inhibition reporter assay (HEK-Blue cells, SEAP reporter); settings: HEK-Blue cells overexpressing human TLR8; stimulated with R848 15.9 μM; SEAP after 22 hour incubation
T3 construct: host or cells: HEK-Blue cells (HEK293-derived reporter line)
T3 sequence (Q9NR97 27-1041): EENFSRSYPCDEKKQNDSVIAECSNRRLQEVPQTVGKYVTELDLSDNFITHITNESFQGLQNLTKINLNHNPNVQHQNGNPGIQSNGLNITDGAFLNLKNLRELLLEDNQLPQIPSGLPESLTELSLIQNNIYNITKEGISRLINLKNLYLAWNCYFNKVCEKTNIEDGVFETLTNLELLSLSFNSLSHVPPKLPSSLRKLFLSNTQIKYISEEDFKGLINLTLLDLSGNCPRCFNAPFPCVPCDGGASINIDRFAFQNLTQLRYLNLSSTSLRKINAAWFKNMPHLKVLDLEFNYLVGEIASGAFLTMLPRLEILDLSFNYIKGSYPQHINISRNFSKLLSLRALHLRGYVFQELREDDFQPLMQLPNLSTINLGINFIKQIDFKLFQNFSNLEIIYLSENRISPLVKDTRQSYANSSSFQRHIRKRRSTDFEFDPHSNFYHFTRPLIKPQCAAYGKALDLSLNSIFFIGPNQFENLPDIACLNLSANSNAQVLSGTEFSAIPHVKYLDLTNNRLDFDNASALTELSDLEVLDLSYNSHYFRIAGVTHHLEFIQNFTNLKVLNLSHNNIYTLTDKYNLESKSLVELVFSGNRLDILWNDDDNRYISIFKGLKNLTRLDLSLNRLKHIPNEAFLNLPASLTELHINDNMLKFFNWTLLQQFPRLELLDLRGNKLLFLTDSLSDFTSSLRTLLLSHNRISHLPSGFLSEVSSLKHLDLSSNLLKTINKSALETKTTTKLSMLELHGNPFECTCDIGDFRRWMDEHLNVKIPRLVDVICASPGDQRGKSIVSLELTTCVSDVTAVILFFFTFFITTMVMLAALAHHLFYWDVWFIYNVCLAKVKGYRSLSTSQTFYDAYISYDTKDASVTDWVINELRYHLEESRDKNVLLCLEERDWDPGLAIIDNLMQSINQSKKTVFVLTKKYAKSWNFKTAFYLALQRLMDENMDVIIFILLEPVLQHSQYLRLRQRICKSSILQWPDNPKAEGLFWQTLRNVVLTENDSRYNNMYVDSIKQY
Description: as §1, §2

Compound	pIC50 (human TLR9)	pIC50 (human TLR7)	pIC50 (human TLR8)
CC(C)N1CCN(c2ccc(-c3cnc4cc(-c5ccc(S(C)(=O)=O)cc5)n(C)c4c3)cc2)[C@@H](C)C1 [Example 30]	6.24	5.32	5.28
CC(C)CN1[C@@H]2CC[C@H]1C[C@@H](N1CCC(c3cnc4cc(-c5ccc(S(=O)(=O)C6CC6)cc5)n(C)c4c3)CC1)C2 [Example 37, 2-(4-cyclopropylsulfonylphenyl)-1-methyl-6-[1-[rac-(1S,5R)-8-isobutyl-8-azabicyclo[3.2.1]octan-3-yl]-4-piperidyl]pyrrolo[3,2-b]pyridine]	6.39	5.96	< 4.30
CC(C)N1CCN(c2ccc(-c3cnc4cc(-c5ccc(S(C)(=O)=O)cc5)n(C)c4c3)cc2)[C@H](C)C1 [Example 28]	6.63	5.49	5.30
CC(C)N1CCN(c2ccc(-c3cnc4cc(-c5cccc(S(=O)(=O)N(C)C)c5)n(C)c4c3)cc2)CC1 [Example 40]	7.12	5.09	5.68
CC(C)N1C[C@@H](C)N(c2ccc(-c3cnc4cc(-c5ccc(S(C)(=O)=O)cc5)n(C)c4c3)cc2)[C@@H](C)C1 [Example 33]	6.42	5.42	5.38
COc1ccc(-c2cc3ncc(-c4ccc(N5CCN(C(C)C)CC5)cc4)cc3n2C)cc1C#N [Example 39]	7.00	< 4.60	< 4.60
Cn1c(-c2ccc(S(C)(=O)=O)cc2)cc2ncc(-c3ccc(CN4CCN(CCC(C)(C)O)CC4)cc3)cc21 [Example 19, 2-Methyl-4-(4-(4-(1-methyl-2-(4-(methylsulfonyl)phenyl)-1H-pyrrolo[3,2-b]pyridin-6-yl)benzyl)piperazin-1-yl)butan-2-ol]	6.18	5.10	5.37
CC(C)N1CCN(c2ccc(-c3cc4nc(-c5ccc(S(C)(=O)=O)cc5)cc-4n(C)c3)cc2)CC1 [Example 3, 6-(4-(4-isopropylpiperazin-1-yl)phenyl)-4-methyl-2-(4-(methylsulfonyl)phenyl)-4H-pyrrolo[3,2-b]pyridine]	7.74	5.01	4.95
COc1ccc(-c2cc3ncc(-c4ccc(N5CCN(C(C)C)CC5)cc4)cc3n2C)cc1OC [Example 1, 2-(3,4-Dimethoxyphenyl)-6-(4-(4-isopropylpiperazin-1-yl)phenyl)-1-methyl-1H-pyrrolo[3,2-b]pyridine]	7.03	5.15	5.14
COc1ccc(-c2cc3ccc(-c4ccc(N5CCN(C(C)C)CC5)cc4)nc3n2C)cc1OC [Example 7, 2-(3,4-Dimethoxyphenyl)-6-(4-(4-isopropylpiperazin-1-yl)phenyl)-1-methyl-1H-pyrrolo[2,3-b]pyridine]	5.34	≤ 4.30	≤ 4.30
Cn1c(-c2ccc(S(C)(=O)=O)cc2)cc2ncc(-c3ccc(N4CCNCC4)cc3)cc21 [Example 20, 1-Methyl-2-(4-(methylsulfonyl)phenyl)-6-(4-(piperazin-1-yl)phenyl)-1H-pyrrolo[3,2-b]pyridine]	6.77	5.70	5.62
CC(C)N1CCN(c2ccc(-c3cnc4cc(-c5ccc(S(C)(=O)=O)cc5)n(C)c4c3)cc2)C[C@H]1C [Example 32]	6.61	4.94	4.82
CC(C)CN1[C@@H]2CC[C@H]1CC(N1CCC(c3cnc4cc(-c5ccc(S(C)(=O)=O)cc5)n(C)c4c3)CC1)C2 (some centres unmarked) [Example 36]	7.66	4.98	< 4.30
Cn1c(-c2ccc(S(C)(=O)=O)cc2)cc2ncc(-c3ccc(CN4CCC(C)(O)CC4)cc3)cc21 [Example 22]	6.47	5.10	4.84
CC(C)N1C2CCC1CN(c1ccc(-c3cnc4cc(-c5ccc(S(C)(=O)=O)cc5F)n(C)c4c3)cc1)C2 [Example 43]	6.53	< 4.30	5.11
CN(C)S(=O)(=O)c1cccc(-c2cc3ncc(-c4ccc(N5CCN(C6CC6)CC5)cc4)cc3n2C)c1 [Example 44]	6.15	–	–
CC(C)N1[C@H](C)CN(c2ccc(-c3cnc4cc(-c5ccc(S(C)(=O)=O)cc5)n(C)c4c3)cc2)C[C@H]1C [Example 35]	7.04	–	–
